What was measured:
[1] = Apparent volume of distribution at central compartment in iv dosed patient (7 patients) with renal insufficiency; conditions: human, in vivo
[2] = Total body clearance in iv dosed patient with normal renal function; conditions: human, in vivo
clinical [3] = conditions: human, in vivo, po, 350 mg/kg
Description: Terminal half life in patient (7 patients) with renal insufficiency at 350 mg/kg, po

[4] = Disposition rate constant in patient (7 patients) with renal insufficiency at 350 mg/kg, po; conditions: human, in vivo
[5] = Total body clearance in iv dosed patient (7 patients) with renal insufficiency; conditions: human, in vivo
[6] = Apparent volume of distribution in beta-phase in iv dosed patient (7 patients) with renal insufficiency; conditions: human, in vivo
[7] = Apparent volume of distribution at steady state in iv dosed patient (7 patients) with renal insufficiency; conditions: human, in vivo
[8] = Terminal half life in iv dosed patient with normal renal function; conditions: human, in vivo
[9] = Apparent volume of distribution at steady state in iv dosed patient with normal renal function; conditions: human, in vivo
[10] = Disposition rate constant in patient (7 patients) with renal insufficiency at 50 mg/kg, po; conditions: human, in vivo
[11] = Apparent first order elimination rate constant from the central compartment in iv dosed patient with normal renal function; conditions: human, in vivo
[12] = Half life in patient with normal renal function assessed as unchanged compound level using 14C labeled compound measured over 72 hrs; conditions: human, in vivo
[13] = Drug excretion in human assessed as unchanged parent compound level; conditions: in vivo
clinical [14] = conditions: human, in vivo, po, 50 mg/kg
Description: Terminal half life in patient (7 patients) with renal insufficiency at 50 mg/kg, po

[15] = Apparent first order elimination rate constant from the central compartment in iv dosed patient (7 patients) with renal insufficiency; conditions: human, in vivo
[16] = Terminal half life in iv dosed patient (7 patients) with renal insufficiency; conditions: human, in vivo
[17] = Half life in patient (5 patients) with severe renal insufficiency assessed as unchanged compound level using 14C labeled compound measured over 72 hrs; conditions: human, in vivo
[18] = Disposition rate constant in iv dosed patient (7 patients) with renal insufficiency; conditions: human, in vivo
[19] = Apparent volume of distribution in beta-phase iv dosed patient with normal renal function; conditions: human, in vivo

## O=P1(N(CCCl)CCCl)NCCCO1 (centres undefined) [CYCLOPHOSPHAMIDE ANHYDROUS]
[1]
  Vd: 0.41 L/kg
[2]
  clearance: 0.977 mL/min/kg
Clinical [3]
  half-life: 5.21 h
[4]
  k el: 1.92e-05 s⁻¹
[5]
  clearance: 0.813 mL/min/kg
[6]
  Vd: 0.72 L/kg
[7]
  Vd: 0.58 L/kg
[8]
  half-life: 8.21 h
[9]
  Vd: 0.73 L/kg
[10]
  k el: 1.42e-05 s⁻¹
[11]
  k el: 4.86e-05 s⁻¹
[12]
  half-life at 72 h: 6.9 h
[13]
  dose excreted: < 15%
Clinical [14]
  half-life: 13.7 h
[15]
  k el: 3.36e-05 s⁻¹
[16]
  half-life: 10.2 h
[17]
  half-life at 72 h: 14 h
[18]
  k el: 1.94e-05 s⁻¹
[19]
  Vd: 0.68 L/kg
